According to patent US4013663A, “Isoquinoline compounds” (priority 1974, dated 1977):

Tests used:
[1] = test system: β-receptors of the blood vessel system; test: β-receptor blocking activity on the blood vessel system (blood pressure measurement in the same animal); format: in vivo, guinea pig; settings: ratio of effective doses from Table 1, given as 1: x
Method: (§1) The particular β-receptor blocking activity on the heart in comparison to that on the blood vessel system was measured by the taking of an EKG or by measurement of the blood pressure in the same animal (guinea pigs) [cf. J. R. C. Baird et al., J. Pharm. Pharmac. […] For investigation of broncho-constrictor activity, the inhibition of the isoprenalin effect on the bronchial system of the guinea pig is employed [cf. H. Konzett et al., Arch. exp. Path. Pharmak.

[2] = test system: β-receptors of the bronchial system; test: inhibition of the isoprenalin effect on the bronchial system; format: in vivo, guinea pig; settings: for dosage relationships in comparison with the comparison compound: Table 2, versus F; for influence of heart-active doses on the bronchial system: at heart-active doses; for Heart: Bronchial System (activity relationship, heart = 1): ratio of effective doses from Table 1, given as 1: x
Method: as §1

[3] = in vivo; settings: mouse, in vivo, iv
Method: (§2) The investigations on toxicity were carried out by intravenous administration to albino mice.

[4] = test system: albino mice; test: in vivo; settings: Table 3
Method: as §2

| Structure (SMILES) | Heart: Blood vessels (activity relationship, heart = 1) [1] | dosage relationships in comparison with the comparison compound [2] | influence of heart-active doses on the bronchial system [2] | Heart: Bronchial System (activity relationship, heart = 1) [2] | LD50 [3] [mg/kg] | toxicity and activity in comparison with E, F, and G [4] |
| --- | --- | --- | --- | --- | --- | --- |
| CC(=O)N1CCc2cc(OCC(O)CNC(C)C)ccc2C1 (stereo not shown) [Substance A, 2-acetyl-1,2,3,4-tetrahydro-6-(2-hydroxy-3-isopropylamino-propoxy)-isoquinoline] | 6.2 | essentially more favorable than for the comparison compound | does not lead to a negative influence on the bronchial system | 5.5 |  |  |
| COc1cc2c(cc1OCC(O)CNC(C)C)CCN(C(C)=O)C2 (stereo not shown) [Substance B, 2-acetyl-1,2,3,4-tetrahydro-6-(2-hydroxy-3-isopropylamino-propoxy)-7-methoxy-isoquinoline] | 1.8 | essentially more favorable than for the comparison compound | does not lead to a negative influence on the bronchial system | > 7.2 |  |  |
| CC(C)NCC(O)COc1cccc2c1CCN(C=O)C2 (stereo not shown) [Substance C, 2-formyl-1,2,3,4-tetrahydro-5-(2-hydroxy-3-isopropylamino-propoxy)-isoquinoline] |  |  |  |  | 148 | less toxic at higher activity |
| CC(C)(C)NCC(O)COc1cccc2c1CCN(C=O)C2 (stereo not shown) [Substance D, 2-formyl-1,2,3,4-tetrahydro-5-(2-hydroxy-3-tert.-butylaminopropoxy)-isoquinoline] |  |  |  |  | 128 | less toxic at higher activity |
| CC(C)NCC(O)COc1cccc2[nH]ccc12 (stereo not shown) [Substance E, prindolol, reference compound] |  |  |  |  | 22.6 |  |
| CC(C)NCC(O)COc1cccc2ccccc12 (stereo not shown) [Substance F, propranolol, reference compound] | 1 |  |  | 0.15 |  |  |
| CC(=O)Nc1ccc(OCC(O)CNC(C)C)cc1 (stereo not shown) [Substance G, practolol, reference compound] |  |  |  |  | 121 |  |
